# Test results: PMC10298530, “Synthesis and Anticancer Activity of A-Ring-Modified Derivatives of Dihydrobetulin” (International Journal of Molecular Sciences, 2023)
# Where “and” joins values, the source holds several entries; their conditions need not be identical. Equal entries are not always repeated. Where two headings read alike, the source gives them in different places.
# Experiments:
# HBL-100/Dox cells [1] = experiment: Cell cycle analysis (DAPI, flow cytometry), HBL-100/Dox; type: cell-based, human; settings: HBL-100/Dox (resistant) cells, 12-24 h, IC50
# Experimental: (§1) The cells were trypsinized and rinsed with the growth medium. Then, the cells were harvested by centrifugation at 500× g for 3 min, and the supernatant was discarded. The cells were washed with PBS (PanEco, Moscow, Russia) twice and centrifuged under similar conditions. The cells were resuspended in 500 μL of PBS, put into centrifuge tubes and fixed by adding 4.5 mL of 70% ethanol dropwise (on ice). The samples were fixed at 4 °C. Overnight, the fixed cells were centrifugally collected (1000× g, 4 °C, 5 min) and washed again with PBS. The cells were finally resuspended in DAPI with 0.1% Triton X-100 in PBS solution (10 μg/mL, Sigma–Aldrich, St. Louis, MO, USA), and stained for 30 min at room temperature in darkness. For each sample, at least 50,000 cells were analyzed using the CytoFlex S flow cytometer (Beckman Coulter, Brea, CA, USA). Cell cycle populations were quantified from DNA histograms with the FlowJo software (ver. X 10.0.7r2, FlowJo Software, San Jose, CA, USA).
# HBL-100/Dox cells [2] = experiment: Combined action of compounds, MTT assay on HBL-100/Dox cells; type: cell-based, human; settings: 72 h, with 30 μM verapamil
# From the text: The results were expressed pictorially using Prism 6.0 (GraphPad Software, Boston, MA, USA).
# HEK293 = experiment: MTT cell viability assay, HEK293; type: cell-based; settings: Homo sapiens
# From the text: (§2) Blokhin National Medical Research Center of Oncology (the Ministry of Health of the Russian Federation, Moscow).
# HBL-100 cells [3] = experiment: Annexin V-FITC/PI assay, HBL-100; type: cell-based, human; settings: 16 h, dose IC50
# Experimental: (§3) Briefly, after exposing the cells to the tested and control compounds for 16 h, the cells were detached with accutase (HiMedia Laboratories, Maharashtra, India) and washed with cold PBS. Then, the cells were re-suspended in 100 μL of 1 × Binding Buffer at concentration 1 × 10^6 cells/mL and incubated with 5 μL Annexin V-FITC and 5 μL propidium iodide (PI) for 15 min at room temperature in darkness. After incubation, 400 μL of 1 × Binding Buffer was added to each tube. The samples were analyzed by flow cytometry (CytoFlex S, Beckman Coulter, Brea, CA, USA) within 1 h of staining, and the findings were analyzed using a trial version of the Kaluza software (Beckman Coulter, Brea, CA, USA).
# MS = experiment: MTT cell viability assay, MS; type: cell-based, human; settings: Homo sapiens;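 for IC50 (mean ± SD): MS is a melanocyte cell line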
# From the text: as §2
# HBL-100/Dox cells [4] = experiment: Annexin V-FITC/PI assay, HBL-100/Dox; type: cell-based, human; settings: 16 h, dose IC50
# Experimental: as §3
# HBL-100 cells [5] = experiment: Cell cycle analysis (DAPI, flow cytometry), HBL-100; type: cell-based, human; settings: for Cell cycle of HBL-100, S-phase: dose = IC50
# Experimental: as §1
# HBL-100/Dox = experiment: MTT cell viability assay, HBL-100/Dox; type: cell-based, human; settings: Homo sapiens
# Experimental: (§4) The cells were cultured in a humidified CO2 incubator (model 460-CE; Thermo Fisher Scientific, Waltham, MA, USA) at +37 °C and 5% CO2.
# (§5) The percentage of the viable cells was calculated according to the following equation: cell viability (%) = 100 × (mean absorbance in the treatment group/mean absorbance in the control group). The results were expressed pictorially using Prism 6.0 (GraphPad Software, Boston, MA, USA).
# HEpG2 = experiment: MTT cell viability assay, HEpG2; type: cell-based, human; settings: Homo sapiens
# From the text: as §2
# HCT116 = experiment: MTT cell viability assay, HCT116; type: cell-based, human; settings: Homo sapiens, HCT-116; HCT116, MTT, 72 h of treatment; read-out: IC50 Values (Mean ± SD)
# From the text: as §2
# RD TE32 = experiment: MTT cell viability assay, RD TE32; type: cell-based, human; settings: Homo sapiens
# From the text: as §2
# HBL-100 = experiment: MTT cell viability assay, HBL-100; type: cell-based, human; settings: Homo sapiens
# Experimental: as §4, §5
# PC-3 = experiment: MTT cell viability assay, PC-3; type: cell-based, human; settings: Homo sapiens; PC-3, MTT, 72 h of treatment; read-out: IC50 Values (Mean ± SD)
# From the text: as §2
# HBL-100 cells [6] = experiment: Hoechst 33342 / TMRE fluorescent microscopy, HBL-100; type: cell-based, human; settings: Hoechst 33342, 16 h, IC50 values (MK 1.0 µM)
# Experimental: (§6) The DNA marker, termed Hoechst 33342 Ready Flow Reagent, was used as a stock solution (Invitrogen, ThermoFisher Scientific, USA). The mitochondrial marker, LumiTracker Mito TMRE (tetramethylrhodamine, ethyl ester; Lumiprobe, Moscow, Russia), was dissolved in DMSO as 1.0 mM stock solution. The marker of reactive oxygen species, H2DCFDA (Lumiprobe, Moscow, Russia), was dissolved in DMSO as 100.0 μM stock solution. After incubation, the cells were incubated with FBS-free culture medium containing the dye mixture of Hoechst 33342 (final concentration 1.0 μM) and LumiTracker Mito TMRE (final concentration 1.0 μM), or H2DCFDA dye taken alone (final concentration 1.0 μM), for 30 min at 37 °C in darkness. Fluorescence, at 420 nm (Hoechst 33342), at 510 nm (TMRE), and at 575 nm (H2DCFDA), of the test cultures (including controls) was analyzed immediately using a fluorescence microscope CKX 53 (Olympus, Tokyo, Japan). The TMRE fluorescence intensity was quantified using Fiji (ImageJ).
# MCF-7 = experiment: MTT cell viability assay, MCF-7; type: cell-based, human; settings: Homo sapiens, MCF7
# From the text: as §2
# HBL-100/Dox cells [7] = experiment: Hoechst 33342 / TMRE fluorescent microscopy, HBL-100/Dox; type: cell-based, human; settings: Hoechst 33342, 16 h, IC50 values (MK 1.8 µM)
# Experimental: as §6
compound,measurement,setting,value
"COc1cccc2c1C(=O)c1c(O)c3c(c(O)c1C2=O)C[C@@](O)(C(=O)CO)C[C@@H]3O[C@H]1C[C@H](N)[C@H](O)[C@H](C)O1 [Dox, doxorubicin, reference compound]",effect on cell cycle progression,HBL-100/Dox cells [1],induced the S phase arrest
same,diminution of IC50 value of Dox in combination with verapamil,HBL-100/Dox cells [2],37 fold
same,IC50,"HEK293; HEK293, MTT, 72 h of treatment, read-out: IC50 Values (Mean ± SD)",400 ± 100 nM
same,IC50,"HEK293; Table S1, HEK293, read-out: IC50 (mean ± SD)",440 ± 40 nM
same,Dead cells,HBL-100 cells [3],1.80±0.31%
same,Early apoptotic cells,HBL-100 cells [3],12.35 ± 0.42%
same,Late apoptotic cells,HBL-100 cells [3],1.93±0.29%
same,Viable cells,HBL-100 cells [3],83.89±0.82%
same,IC50,"MS; MS, MTT, 72 h of treatment, read-out: IC50 Values (Mean ± SD)",1300 ± 200 nM
same,IC50,"MS; Table S1, MS, read-out: IC50 (mean ± SD)",1290 ± 160 nM
same,Dead cells,HBL-100/Dox cells [4],0.84±0.24%
same,Early apoptotic cells,HBL-100/Dox cells [4],2.56 ± 0.36% and 2.56±0.37%
same,Late apoptotic cells,HBL-100/Dox cells [4],0.82±0.55%
same,Viable cells,HBL-100/Dox cells [4],95.74±1.10%
same,"Cell cycle of HBL-100, S-phase",HBL-100 cells [5]; 12 h,48.19±0.09%
same,"Cell cycle of HBL-100, S-phase",HBL-100 cells [5]; 13 h,46.86±0.22%
same,"Cell cycle of HBL-100, S-phase",HBL-100 cells [5]; 14 h,48.25±0.51%
same,"Cell cycle of HBL-100, S-phase",HBL-100 cells [5]; 15 h,57.27±0.14%
same,"Cell cycle of HBL-100, S-phase",HBL-100 cells [5]; 16 h,61.28±2.01%
same,"Cell cycle of HBL-100, S-phase",HBL-100 cells [5]; 17 h,56.17±1.64%
same,"Cell cycle of HBL-100, S-phase",HBL-100 cells [5]; 18 h,55.42±0.92%
same,"Cell cycle of HBL-100, S-phase",HBL-100 cells [5]; 24 h,76.69±0.75%
same,effect on cell cycle progression,"HBL-100 cells [5]; HBL-100 (parental) cells, 12-24 h, IC50",induced the S phase arrest
same,IC50,"HBL-100/Dox; HBL-100, 72 h, read-out: IC50 Values (Mean ± SD)",29600 ± 900 nM
same,IC50,"HBL-100/Dox; HBL-100, read-out: IC50 (mean ± SD)",29600 ± 940 nM
same,IC50,"HEpG2; HEpG2, MTT, 72 h of treatment, read-out: IC50 Values (Mean ± SD)",1800 ± 300 nM
same,IC50,"HEpG2; Table S1, HEpG2, read-out: IC50 (mean ± SD)",1780 ± 300 nM
same,IC50,HCT116,1300 ± 300 nM
same,IC50,"RD TE32; RD TE32, MTT, 72 h of treatment, read-out: IC50 Values (Mean ± SD)",1300 ± 100 nM
same,IC50,"RD TE32; Table S1, RD TE32, read-out: IC50 (mean ± SD)",1270 ± 30 nM
same,IC50,"HBL-100; HBL-100, MTT, 72 h of treatment, read-out: IC50 Values (Mean ± SD)",400 ± 100 nM
same,IC50,"HBL-100; Table S1, HBL-100, read-out: IC50 (mean ± SD)",350 ± 30 nM
same,IC50,PC-3,12600 ± 200 nM
same,number of cells with nuclear morphology changes,HBL-100 cells [6],25.2%
same,IC50,"MCF-7; MCF-7, MTT, 72 h of treatment, read-out: IC50 Values (Mean ± SD)",400 ± 100 nM
same,IC50,"MCF-7; Table S1, MCF-7, read-out: IC50 (mean ± SD)",380 ± 90 nM
same,number of cells with nuclear morphology changes,HBL-100/Dox cells [7],9.9%
